The values that follow are results of earlier work, collected in patent publication US8815815B2, “Methods for producing phytoextracts from vegetation waters and olive oil pomaces and compositions obtained thereby” (Phenofarm S.r.l., priority 2011, dated 2014).

Molecules are shown by their SMILES. ≈ marks a conversion by molar mass, not a printed value.

In data set [1] the test system is P-388 murine leukaemia cells.
The subject of data set [2] is PC12 neuronal cell culture. Particulars: 1-methyl-4-phenylpyridine (MPP+) ion.
The subject of data set [3] is neutrophils. Particulars: in vitro.

Turning to `C[C@@H]1O[C@@H](O[C@@H]2[C@@H](O)[C@H](OCCc3ccc(O)c(O)c3)O[C@H](COC(=O)/C=C/c3ccc(O)c(O)c3)[C@H]2O)[C@H](O)[C@H](O)[C@H]1O` [isoacteoside], the ED50 cytotoxic action in data set [1] is 10 µg/mL (≈ 16 µM).

For the molecule `C[C@@H]1O[C@@H](O[C@@H]2[C@@H](O)[C@H](OCCc3ccc(O)c(O)c3)O[C@H](CO)[C@H]2OC(=O)/C=C/c2ccc(O)c(O)c2)[C@H](O)[C@H](O)[C@H]1O` [verbascoside], the ED50 cytotoxic action in data set [1] was 26 µg/mL (≈ 41.6 µM). Moreover, the “protection activity against neurotoxicity induced by MPP+” value in data set [2] is reported as “protection activity against neurotoxicity”. Besides, the “chemotactic activity of neutrophils” value in data set [3] was “increasing the chemotactic activity of neutrophils”.
